Test results from patent US6689805B2, “Pyrazole-3-one derivative, method for preparing the same, and pharmaceutical composition containing the same” (CJ Corp., priority 2002, dated 2004).

How the values were obtained:
COX-1 = molecular target: T1, COX-1 (Homo sapiens, UniProt P23219); assay: Assay for the COX-1 inhibitory activity using U-937 (PGE2 inhibition); type: cell-based; settings: test compound 1 μM; U-937 human lymphoma cells; PGE2 vs DMSO control; read-out: Cyclooxygenase (COX) Inhibition (%) COX-1 (1 μM)
T1 construct: endogenous in cells
T1 sequence (P23219 24-599): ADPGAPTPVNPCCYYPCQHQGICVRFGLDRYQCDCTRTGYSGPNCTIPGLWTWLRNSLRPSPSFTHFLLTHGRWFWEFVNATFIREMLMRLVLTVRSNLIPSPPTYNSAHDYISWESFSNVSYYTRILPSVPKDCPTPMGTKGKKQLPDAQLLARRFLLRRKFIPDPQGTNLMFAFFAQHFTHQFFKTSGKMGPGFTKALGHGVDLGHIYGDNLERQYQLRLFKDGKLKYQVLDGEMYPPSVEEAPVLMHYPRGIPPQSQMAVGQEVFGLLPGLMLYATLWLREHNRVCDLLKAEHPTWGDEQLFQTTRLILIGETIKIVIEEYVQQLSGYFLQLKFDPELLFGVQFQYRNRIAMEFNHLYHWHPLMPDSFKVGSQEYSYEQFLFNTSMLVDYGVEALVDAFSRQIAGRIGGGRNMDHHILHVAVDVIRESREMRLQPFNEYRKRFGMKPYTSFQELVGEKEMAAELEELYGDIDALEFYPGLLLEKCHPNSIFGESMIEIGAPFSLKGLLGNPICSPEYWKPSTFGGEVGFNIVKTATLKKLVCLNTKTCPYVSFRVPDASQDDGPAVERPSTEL
Description: The collected cells were diluted with HBSS (x1, Hank's balanced salt solution) to a concentration of 1×10^6 cells/ml. 1 ml of the dilute cell solution was placed into each well of 12-well plates. 5 μl of 1 μM solution of a test compound in DMSO and 5 μl of DMSO as a control were added to the wells. The wells were incubated in CO2 incubator at 37° C. for 15 minutes. Separately, 10 mM stock solution of arachidonic acid in ethanol was diluted ten times in ethanol to prepare 1 mM solution of arachidonic acid. Arachidonic acid acts as a substrate. 10 μl of the 1 mM solution of arachidonic acid was added to each well and incubated at CO2 incubator at 37° C. for 30 minutes. The cell solution of each well was placed in a centrifuge test tube and centrifuged at 10,000 rpm at 4° C. for 5 minutes. The concentration of PGE2 in the collected cells and the supernatant was quantified by means of a monoclonal kit (Cayman Chemicals). The percentages of PGE2 inhibition in a group of the test compound-treated cells in relation to a group of the DMSO-treated cells were calculated. Based on the calculated values, the COX-1 inhibitory activities were evaluated.
(§1) The percentages of the COX inhibition were calculated according to the following equation:
(§2) % Inhibition=(concentration of PGE2 in test compound-untreated sample−concentration of PGE2 in test compound-treated sample) / (concentration of PGE2 in test compound-untreated sample)×100

COX-2 = molecular target: T2, COX-2 (Mus musculus, UniProt Q05769); assay: Assay for the COX-2 inhibitory activity using RAW 264.7 cell line (PGE2 inhibition); type: cell-based; settings: RAW264.7, test compound 10 nM, RAW 264.7 cells, interferon + LPS induced, read-out: Cyclooxygenase (COX) Inhibition (%) COX-2 (10 nM)
T2 construct: endogenous in cells
T2 sequence (Q05769 18-604): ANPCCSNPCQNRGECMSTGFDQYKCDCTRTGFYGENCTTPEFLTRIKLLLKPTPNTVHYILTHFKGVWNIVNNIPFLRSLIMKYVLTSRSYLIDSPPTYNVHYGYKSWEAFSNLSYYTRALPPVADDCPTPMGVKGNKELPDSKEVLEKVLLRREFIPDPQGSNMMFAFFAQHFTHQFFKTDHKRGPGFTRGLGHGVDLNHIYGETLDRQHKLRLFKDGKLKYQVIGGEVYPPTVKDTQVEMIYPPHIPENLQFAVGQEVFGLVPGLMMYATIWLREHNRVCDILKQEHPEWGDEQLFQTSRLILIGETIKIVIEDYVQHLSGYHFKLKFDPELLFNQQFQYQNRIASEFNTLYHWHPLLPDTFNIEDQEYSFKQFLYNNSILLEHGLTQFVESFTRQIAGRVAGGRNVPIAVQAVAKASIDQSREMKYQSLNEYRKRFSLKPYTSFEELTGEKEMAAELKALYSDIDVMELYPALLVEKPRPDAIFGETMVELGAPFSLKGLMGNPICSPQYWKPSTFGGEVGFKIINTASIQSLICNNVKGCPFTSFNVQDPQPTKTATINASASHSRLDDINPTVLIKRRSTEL
Description: Each well was treated with 250 μM of aspirin and incubated at 37° C. for 2 hours. After the culture media were replaced with new culture media, the new culture media were treated with a test compound (10 nM) and incubated for 30 minutes. Then, each well was treated with interferon ? (100 units/ml) and lipopolysaccharide (LPS, 100 ng/ml) and incubated for 18 hours. The culture media were transferred to other test tubes. The concentration of PGE2 was quantified by means of the EIA kit (Cayman Chemicals).
as §1, §2

SMILES | melting point [°C] | inhibition at 1 µM (COX-1) [%] | inhibition at 0.01 µM (COX-2) [%]
Cn1c(-c2ccc(S(C)(=O)=O)cc2)c(-c2ccc(Cl)c(Cl)c2)c(=O)n1C [Example 8, 4-(3,4-dichlorophenyl)-5-(4-methanesulfonylphenyl)-1,2-dimethyl-1,2-dihydropyrazole-3-one] | 240 to 242 | – | –
Cc1ccc(-c2c(-c3ccc(S(C)(=O)=O)cc3)n(C)n(C)c2=O)cc1 [Example 7, 5-(4-methanesulfonylphenyl)-1,2-dimethyl-4-(4-methylphenyl)-1,2-dihydropyrazole-3-one] | 247 to 249 | 36.5 | 12.5
Cc1onc(-c2ccccc2)c1-c1ccc(S(N)(=O)=O)cc1 [Reference (Valdecoxib), Valdecoxib, reference compound] | – | 28.8 | –
COc1ccc(-c2c(-c3ccc(S(C)(=O)=O)cc3)n(C)n(C)c2=O)cc1 [Example 5, 5-(4-methanesulfonylphenyl)-4-(4-methoxyphenyl)-1,2-dimethyl-1,2-dihydropyrazole-3-one] | 245 to 247 | 10.5 | 22.5
Cn1c(-c2ccc(S(C)(=O)=O)cc2)c(-c2ccccc2)c(=O)n1C [Example 6, 5-(4-methanesulfonylphenyl)-1,2-dimethyl-4-phenyl-1,2-dihydropyrazole-3-one] | 210 to 212 | 22.6 | 13.2
